Assay results from US5344850A, “Topical composition for preventing or treating acne vulgaris” (Takasago International Corporation, priority 1992, dated 1994).
In brackets after ≈: the same amount, converted by molar mass. Read-outs that look alike come from different tables or passages of the source.

Assays:
[1] = tested on: Staphylococcus epidermidis, Pseudomonas aeruginosa, Corynebacterium species, Aerobacter kleps and Candida albicans; conditions: in words; cited from earlier work
[2] = tested on: Propionibacterium acnes; conditions: cited from earlier work
[3] = tested on: Propionibacterium acnes; assay: Minimum growth inhibitory concentration (MIC) on Propionibacterium acnes (Test Example 1); assay type: cell-based, Propionibacterium acnes (ATCC 6919); conditions: for MIC: Cutibacterium acnes; for Antibacterial activity (in words): inhibition of proliferation of Propionibacterium acnes, as compared with eugenol
Description: The minimum growth inhibitory concentrations (MIC) of the compounds (2) and (3) as obtained in Production Examples 1 and 2 on Propionibacterium acnes were determined in the following manner.
59.0 g of a GAM (Gifu anaerobic medium) bouillon medium (manufactured by Nissui Pharmaceutical Co., Ltd.) was dissolved in 1 liter of purified water and a test compound was added thereto so as to give a concentration of 100 μg/ml. A serial 2-fold dilution of the mixture thus obtained was made with the medium followed by sterilization. 10 ml portions of the mixture were pipetted into test tubes and each inoculated with 0.1 ml of Propionibacterium acnes (ATCC 6919) which had been pre-incubated to give a cell concentration of 1×10^8 cells/mi. After stationary incubation under anaerobic conditions for 48 hours, the turbidity was measured at a wavelength of 660 nm. […] For comparison, MIC of eugenol, which had been known as having a relatively strong antibacterial activity, on Propionibacterium acnes was determined.

[4] = Propionibacterium acnes, GAM bouillon medium, anaerobic, 48 hours, turbidity at 660 nm, read-out: MIC

SMILES	Antibacterial activity (in words) [3]	MIC [3, 4] [µg/mL]	further results
CC(C)=CCCC(C)=CCCC(C)=CCO [farnesol, 3,7,11-trimethyldodeca-2,6,10-trien-1-ol]			growth inhibitory effect [1]: exhibits a growth inhibitory effect; antibacterial activity, used alone ([2]; farnesol used alone): little activity; antibacterial activity, used in combination ([2]; in combination with phenyl hydroxyalkyl ether and glycerol monolaurate): exhibits an antibacterial activity
CC(C)CCCC(C)CCCC(C)CCCC(C)O (centres unmarked) [compound (2), 6,10,14-trimethylpentadecan-2-ol]	intense antibacterial activity		MIC ([3]; 48 h): 3.13 µg/mL (≈ 11.6 µM)
C=CCc1ccc(O)c(OC)c1 [eugenol]		50 (≈ 304 µM)	
CC(C)=CCCC(C)=CCCC(C)=CCCC(C)O (centres unmarked) [compound (3), 6,10,14-trimethyl-5,9,13-pentadecatrien-2-ol]	intense antibacterial activity	1.56 (≈ 5.9 µM)	
